Assays:
[1] = biological target: T1, BChE from equine serum (EqBChE) (Equus caballus, UniProt P81908); assay: Inhibition of BChE, modified Ellman's spectrophotometric method; format: biochemical; conditions: EqBChE, Ellman's method; mean ± SD, n = three independent experiments
T1 construct: butyrylcholinesterase originated from equine serum (EqBChE); purchased Merck (Prague, Czech Republic); host or cells: equine serum
Excerpt: (§1) The heterocycles 3 were screened for their ability to interfere with the function of AChE from electric eel (EeAChE) and BChE from equine serum (EqBChE) using Ellman’s method (Table 1). Their activities are expressed as the concentration producing 50% inhibition of enzymatic activity (IC50). In addition, we calculated selectivity indexes (SI) that quantify the selectivity for AChE as more inhibited cholinesterase. SI is the ratio of IC50 for BChE/IC50 for AChE.
(§2) Enzyme inhibition activity of 3 quantified as IC50 values was determined spectrophotometrically using modified Ellman’s method. […] The enzyme activity is measured indirectly by determination of 5-mercapto-2-nitrobenzoic acid ion formed after reaction of the thiol reagent 5,5′-disulfanediyl-bis(2-nitrobenzoic acid) (DTNB) and thiocholine, a product of acetylthiocholine (ATCh) and butyrylthiocholine (BTCh) as substrates for hydrolysis by AChE and BChE, respectively.
(§3) The enzyme activity in final reaction mixture (2000 µL) was 0.2 U/mL, concentration of ATCh (or BTCh) 40 µM and concentration of DTNB 100 µM for all reactions. The compounds 3 were dissolved in DMSO and then diluted in demineralized water (conductivity 3 μS, equipment supplier BKG Water Treatment, Hradec Králové, Czech Republic) to the concentration of 1000 µM. […] The final concentration of DMSO was 0.2%. All experiments were carried in triplicates. The average values of reaction rate (v0-uninhibited reaction, vi-inhibited reaction) were used for construction of the dependence v0/vi vs. concentration of inhibitor. From obtained equation of regression curve, IC50 values were calculated.
(§4) Acetylcholinesterase was used from electric eel (Electrophorus electricus L.; EeAChE) and butyrylcholinesterase originated from equine serum (EqBChE).

[2] = biological target: T2, AChE from electric eel (EeAChE) (Electrophorus electricus, UniProt O42275); assay: Inhibition of AChE, modified Ellman's spectrophotometric method; format: biochemical, electric eel (Electrophorus electricus L.); conditions: for IC50: EeAChE, Ellman's method, mean ± SD, n = three independent experiments
T2 construct: purchased Merck (Prague, Czech Republic)
T2 sequence (O42275 24-633): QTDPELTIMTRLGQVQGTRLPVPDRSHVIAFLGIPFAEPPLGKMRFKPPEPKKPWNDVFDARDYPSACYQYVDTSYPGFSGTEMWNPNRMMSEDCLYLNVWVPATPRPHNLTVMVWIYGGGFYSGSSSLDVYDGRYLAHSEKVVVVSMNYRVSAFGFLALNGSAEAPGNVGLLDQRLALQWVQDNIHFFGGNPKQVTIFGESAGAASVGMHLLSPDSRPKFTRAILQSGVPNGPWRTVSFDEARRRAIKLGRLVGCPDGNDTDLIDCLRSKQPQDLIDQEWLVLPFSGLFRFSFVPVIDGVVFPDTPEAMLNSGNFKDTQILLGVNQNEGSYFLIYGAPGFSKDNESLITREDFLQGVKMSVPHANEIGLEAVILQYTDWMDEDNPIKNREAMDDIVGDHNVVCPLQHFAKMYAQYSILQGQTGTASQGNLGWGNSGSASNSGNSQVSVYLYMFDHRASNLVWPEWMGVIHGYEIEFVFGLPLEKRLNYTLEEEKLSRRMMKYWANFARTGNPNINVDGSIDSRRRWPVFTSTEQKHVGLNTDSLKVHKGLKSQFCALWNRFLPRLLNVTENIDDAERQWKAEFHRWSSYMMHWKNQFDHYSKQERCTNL
Excerpt: as §1, §2, §3, §4

T1 sequence (P81908 whole entry): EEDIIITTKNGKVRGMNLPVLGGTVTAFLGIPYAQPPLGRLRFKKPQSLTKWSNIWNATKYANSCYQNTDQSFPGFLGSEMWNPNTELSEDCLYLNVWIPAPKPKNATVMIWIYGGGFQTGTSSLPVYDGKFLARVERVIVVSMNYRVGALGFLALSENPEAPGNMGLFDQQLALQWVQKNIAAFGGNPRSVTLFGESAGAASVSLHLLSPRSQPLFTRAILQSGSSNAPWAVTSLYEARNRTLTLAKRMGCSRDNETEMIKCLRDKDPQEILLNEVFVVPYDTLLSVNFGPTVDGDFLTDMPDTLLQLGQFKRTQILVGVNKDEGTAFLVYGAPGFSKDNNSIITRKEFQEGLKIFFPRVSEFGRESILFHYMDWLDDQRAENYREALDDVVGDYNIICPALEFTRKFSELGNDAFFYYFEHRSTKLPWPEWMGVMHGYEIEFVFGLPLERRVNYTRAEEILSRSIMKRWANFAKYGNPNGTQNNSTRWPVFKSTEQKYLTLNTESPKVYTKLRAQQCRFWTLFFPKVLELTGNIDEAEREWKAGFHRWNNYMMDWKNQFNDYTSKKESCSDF

CCCCCCCCCCCCNc1nnc(-c2ccccc2)o1 [3a, N-Dodecyl-5-phenyl-1,3,4-oxadiazol-2-amine]
IC50 [1]: 149 ± 1.69 µM | IC50 [2]: 40.1 ± 0.54 µM | BChE/AChE Ratio (selectivity index, IC50 for BChE/IC50 for AChE) [2]: 3.7

CCCCCCCCCCCCNc1nnc(-c2ccc(C)cc2)o1 [3b, N-Dodecyl-5-(p-tolyl)-1,3,4-oxadiazol-2-amine]
IC50 [1]: 90 ± 2.35 µM | IC50 [2]: 34.6 ± 0.96 µM | BChE/AChE Ratio (selectivity index, IC50 for BChE/IC50 for AChE) [2]: 2.6

CCCCCCCCCCCCNc1nnc(-c2ccc(OC)cc2)o1 [3c, N-Dodecyl-5-(4-methoxyphenyl)-1,3,4-oxadiazol-2-amine]
IC50 [1]: 225 ± 11 µM | IC50 [2]: 33.86 ± 0.27 µM | BChE/AChE Ratio (selectivity index, IC50 for BChE/IC50 for AChE) [2]: 6.6

CCCCCCCCCCCCNc1nnc(-c2ccc(C(C)(C)C)cc2)o1 [3d, 5-[4-(tert-Butyl)phenyl]-N-dodecyl-1,3,4-oxadiazol-2-amine]
IC50 [1]: 152 ± 6.02 µM | IC50 [2]: 65.2 ± 0.72 µM | BChE/AChE Ratio (selectivity index, IC50 for BChE/IC50 for AChE) [2]: 2.3

CCCCCCCCCCCCNc1nnc(-c2ccc([N+](=O)[O-])cc2)o1 [3e, N-Dodecyl-5-(4-nitrophenyl)-1,3,4-oxadiazol-2-amine]
IC50 [1]: 105.2 ± 0.94 µM | IC50 [2]: 70.46 ± 0.59 µM | BChE/AChE Ratio (selectivity index, IC50 for BChE/IC50 for AChE) [2]: 1.5

CCCCCCCCCCCCNc1nnc(-c2ccc(N(C)C)cc2)o1 [3f, 5-[4-(Dimethylamino)phenyl]-N-dodecyl-1,3,4-oxadiazol-2-amine]
IC50 [1]: 316 ± 6.22 µM | IC50 [2]: 87.99 ± 0.81 µM | BChE/AChE Ratio (selectivity index, IC50 for BChE/IC50 for AChE) [2]: 3.6

CCCCCCCCCCCCNc1nnc(-c2ccc(F)cc2)o1 [3g, N-Dodecyl-5-(4-fluorophenyl)-1,3,4-oxadiazol-2-amine]
IC50 [1]: 266.7 ± 2.59 µM | IC50 [2]: 36.7 ± 1.59 µM | BChE/AChE Ratio (selectivity index, IC50 for BChE/IC50 for AChE) [2]: 7.3

CCCCCCCCCCCCNc1nnc(-c2ccc(Cl)cc2)o1 [3h, 5-(4-Chlorophenyl)-N-dodecyl-1,3,4-oxadiazol-2-amine]
IC50 [1]: 444 ± 8.5 µM | IC50 [2]: 50.2 ± 1.88 µM | BChE/AChE Ratio (selectivity index, IC50 for BChE/IC50 for AChE) [2]: 8.8

CCCCCCCCCCCCNc1nnc(-c2ccc(Br)cc2)o1 [3i, 5-(4-Bromophenyl)-N-dodecyl-1,3,4-oxadiazol-2-amine]
IC50 [1]: 369 ± 5.82 µM | IC50 [2]: 40 ± 0.98 µM | BChE/AChE Ratio (selectivity index, IC50 for BChE/IC50 for AChE) [2]: 9.2

CCCCCCCCCCCCNc1nnc(-c2ccc(I)cc2)o1 [3j, N-Dodecyl-5-(4-iodophenyl)-1,3,4-oxadiazol-2-amine]
IC50 [1]: 482 ± 6.15 µM | IC50 [2]: 37.8 ± 1.83 µM | BChE/AChE Ratio (selectivity index, IC50 for BChE/IC50 for AChE) [2]: 12.7
